Patent US20230248025A1 (priority 2020, published 2023)
Where “and” joins values, the source holds several entries; their conditions need not be identical. Identical values can stand only once.

Experiments:
lactic flora = experiment: Lactic flora in cooked emulsified sausage during storage; assay type: cell-based
Listeria monocytogenes [1] = experiment: Challenge test Listeria in fresh ground sausage; assay type: cell-based
total flora = experiment: Total plate count in cooked emulsified sausage during storage; assay type: cell-based
[2] = test system: Clostridium botulinum (group II type B); assay type: cell-based
Listeria monocytogenes [3] = details: emulsified sausage; 4° C. then 8° C.
[4] = Color and stability study in emulsified cooked sausage (visual, L*a*b*, hue angle, delta a*, delta E); assay type: physicochemical
toxins of C. botulinum = test system: toxins of C. botulinum; parameters: species or system Clostridium botulinum; details: in vivo
[5] = pH of emulsified cooked sausage modalities before and after cooking; assay type: physicochemical
lactic acid bacteria = experiment: Endogenous lactic acid bacteria in cooked emulsified sausage model; assay type: cell-based
[6] = cooked emulsified sausage, d0 to d21
[7] = emulsified sausage, modalities 3-6 also contain 3000 ppm Natstabil M2 blend1

In the case of lactate, the lactic flora growth (lactic flora) is reported as “normal growth”, the “Δ log cfu/g versus untreated control” value (Listeria monocytogenes [1]; d8) is reported as −0.9 log cfu/g and the total flora growth (total flora) is reported as “normal growth”.

For `O=NO` [Nitrite], the “C. botulinum (spores + vegetative cells) D0 before cooking” value [2] was 250 CFU/g and 450 CFU/g and 400 CFU/g, the “C. botulinum (spores + vegetative cells) Day 30” value [2] was <5 CFU/g and 5 CFU/g and the “C. botulinum (spores + vegetative cells) Day 40” value [2] was 5 CFU/g and <5 CFU/g. The “C. botulinum (spores only) D0 after cooking” value [2] was <5 CFU/g and 5 CFU/g, the “C. botulinum (spores only) Day 21” value [2] was less than 5 CFU/g and the “C. botulinum (spores only) Day 30” value [2] was less than 5 CFU/g. For the same compound, the “C. botulinum (spores only) Day 40” value [2] was less than 5 CFU/g, the “Listeria growth during shelf-life” value (Listeria monocytogenes [3]) was “cannot limit the growth” and the “sausage color after 21 days of storage (visual)” value ([4]; 10 days at 4° C. and 11 days at 8° C.) was “slightly degraded (pale orange shade)”. For the same compound, the “a* value over time” value [4, 6] was “a* values more important than control, stable over time”, the “b* value over time” value [4, 6] was “slight increase of b* value at d21” and the “meat color before cooking (visual)” value [4, 7] was “grey”. For the same compound, the “sausage color after cooking (visual)” value [4, 7] was “light pink”, the “Detection of toxins of C. botulinum, positive samples of 5, Day 21” value (toxins of C. botulinum) was 0/5 and the “Detection of toxins of C. botulinum, positive samples of 5, Day 40” value (toxins of C. botulinum) was 0/5. The “production of C. botulinum toxin” value (toxins of C. botulinum) was “inhibit the production of toxin”, the “pH after cooking d0” value [5] was 6.48 and the pH before cooking [5] was 6.31. The “pH d7” value [5] was 6.43, the “pH d14” value [5] was 6.47 and the “pH d21” value [5] was 6.47. For the same compound, the “Lactic acid bacteria Day 40” value (lactic acid bacteria; 14 days at 4° C., 2 h at 20° C. and 26 days at 8° C.) was less than 5 CFU/g, the “Lactic acid bacteria D0 after cooking” value (lactic acid bacteria; inoculated sausage model) was less than 5 CFU/g and the lactic flora growth (lactic flora) was “normal growth”. For the same compound, the “Δ log cfu/g versus untreated control” value (Listeria monocytogenes [1]; d4) was less than −0.5 log cfu/g, the “Δ log cfu/g versus untreated control” value (Listeria monocytogenes [1]; d8) was less than −0.5 log cfu/g and the total flora growth (total flora) was “normal growth”.
